Laboratory results taken from patent publication US9604923B2 (H. LEE MOFFITT CANCER CENTER AND RESEARCH INSTITUTE, INC., priority 2006, dated 2017).
Like-named read-outs stand apart in the source and are kept apart here.

Columns and labels:
STAT3 [1] = target: T1, STAT3 (Mus musculus, UniProt P42227); assay: Inhibition of STAT3 dimerization, EMSA assay; assay type: binding; design: nuclear extracts were pre-incubated with compound for 30 minutes at room temperature prior to incubation with the radiolabeled probe; endogenous in cells; host or cells: nuclear extracts per the general EMSA method
STAT3 [2] = target: T1, STAT3; assay: Inhibition of STAT3 dimerization, EMSA assay; assay type: binding; design: endogenous in cells; host or cells: nuclear extracts per the general EMSA method
Stat5:5 = assay: STATs DNA-binding activity in vitro, EMSA with MGFe probe; design: species or system mouse
[3] = tested on: pShc, pErk1/2, pSrc, pTyr profile in NIH3T3/v-Src or EGF-stimulated NIH3T3/hEGFR; assay: Western blot for other signaling proteins; assay type: cell-based, mouse
[4] = tested on: β-Casein promoter-driven Luc; assay: Luciferase reporter assay, v-Src co-transfected NIH3T3; assay type: cell-based, mouse; details: 100 μM, 24 hours
From the text: (§1) […]; Turkson, J. et al. Mol. Cell.
[…]. […] […].

NIH3T3/v-Src [5] = assay: Viable cell number by trypan blue exclusion; assay type: cell-based, mouse; details: 100 μM, four days
From the text: (§2) […]. Values are the mean and S.D. of 3-4 independent determinations.
(§3) . The present inventors next determined whether this Stat3 activity inhibitor is able to inhibit the anchorage-dependent and -independent (transformation) growth of human and mouse cancer cell lines and whether this inhibition is dependent on the presence of persistently-active Stat3. […]. […]

NIH3T3 [6] = assay: Viable cell number by trypan blue exclusion; assay type: cell-based, mouse; details: 100 μM, four days
From the text: as §2, §3

[7] = tested on: MDA-MB-231, MDA-MB-435 and MDA-MB-468; assay: Viable cell number by trypan blue exclusion; assay type: cell-based, human; details: 100 μM, four days
From the text: as §2, §3

MDA-MB-453 [8] = assay: Viable cell number by trypan blue exclusion; assay type: cell-based, human; details: 100 μM, four days
From the text: as §2, §3

NIH3T3/v-Ras = assay: Soft-agar colony formation assay; assay type: cell-based, mouse; details: 100 μM every 3 days
Description: (§4) Briefly, each well contained 1.5 ml of 1% agarose in Dulbeco's modified Eagle's medium as the bottom layer and 1.5 ml of 0.5% agarose in Dulbeco's modified Eagle's medium containing 4000 or 6000 NIH3T3/v-Src or NIH3T3/v-Ras fibroblasts, respectively, as the top layer. […]. Colonies were quantified by staining with 20 μl of 1 mg/ml iodonitrotetrazolium violet, incubating at 37° C. overnight, and counting the next day.

NIH3T3/v-Src [9] = assay: Soft-agar colony formation assay; assay type: cell-based, mouse; details: 100 μM every 3 days
Description: as §4

MDA-MB-435 = assay: Apoptosis by Annexin V binding and Flow Cytometry; assay type: cell-based, human
Description: (§5) In some cases, cells were first transfected with Stat3C, ST3-NT, or ST3-SH2 domain or mock-transfected for 24 hours prior to treatment with compound for an additional 24-48 hours. Cells were then detached and analyzed by Annexin V binding (BD Biosciences, San Diego) according to the manufacturer's protocol and Flow Cytometry to quantify the percent apoptosis.

MDA-MB-453 [10] = assay: Apoptosis by Annexin V binding and Flow Cytometry; assay type: cell-based, human; details: 100 μM or less, 48 hours
Description: as §5

NIH3T3/v-Src [11] = assay: Apoptosis by Annexin V binding and Flow Cytometry; assay type: cell-based, mouse
Description: . In FIG. 4B, human breast carcinoma MDA-MB-231 cells were transfected with pcDNA3 (mock), Stat3C or untransfected (Non), or the v-Src transformed mouse fibroblasts (NIH3T3/v-Src) were transfected with pcDNA3 (mock), N-terminus of Stat3 (ST3-NT) or the Stat3 SH2 domain (ST3-SH2) for […]. […]. Values are the mean and S.D. of six independent determinations. Western blot data are representative of 3 independent analyses.
as §5

NIH3T3 [12] = assay: Apoptosis by Annexin V binding and Flow Cytometry; assay type: cell-based, mouse
Description: as §5

MDA-MB-231 = assay: Apoptosis by Annexin V binding and Flow Cytometry; assay type: cell-based, human; details: untransfected or mock-transfected cells; 100 μM
Description: as §1, §5
[…]. To this end, the breast carcinoma MDA-MB-231 cells that harbor activated Stat3 were transiently transfected with Stat3C and evaluated for apoptosis. […] […]. There is increased in the background level of cell death, which could be due to the effects of transfection. […].

[13] = tested on: Cyclin D1, Bcl-xL and Survivin in NIH3T3/v-Src; assay: Immunoblot of Stat3-regulated gene products; assay type: cell-based, mouse; details: 100, 48 hours
[14] = tested on: Cyclin D1, Bcl-xL and Survivin in MDA-MB-231; assay: Immunoblot of Stat3-regulated gene products; assay type: cell-based, human; details: 100, 48 hours
[15] = tested on: human breast (MDA-MB-231) tumor; assay: Human breast tumor xenografts in athymic nude mice; assay type: in vivo, mouse
[16] = target: FLAG-ST3:Stat3-YFP complex (Homo sapiens, UniProt P40763); details: NIH3T3/v-Src, 24 hours
[17] = tested on: constitutively-active Stat3 in NIH3T3/v-Src fibroblasts; details: 100 μM, by 24 hours
Description: (§6) To investigate non-specific effects, SDS-PAGE and Western blot analysis was performed on whole-cell lysates from mouse fibroblasts transformed by v-Src (NIH3T3/v-Src) or overexpressing the human EGFR (NIH3T3/hEGFR) and stimulated by EGF to determine the ability to inhibit other signaling proteins.

[18] = tested on: constitutively-active Stat3 in MDA-MB-231, MDA-MB-435 and MDA-MB-468 cells; details: 100 μM; by 24 hours in text, 48 hours in FIG. 2E legend
Description: as §6

[19] = tested on: pTyr705 Stat3 in NIH3T3/v-Src fibroblasts; details: 100 μM, 24-hour treatment
[20] = tested on: Stat3-dependent luciferase reporter pLucTKS3; details: dose-dependent manner
[21] = tested on: Stat3-independent luciferase reporter pLucSRE; details: 100 μM, 24 hours
Stat3 [22] = target: Stat3 (Homo sapiens, UniProt P40763); details: 10, 30, and 100 μM pre-incubation
Stat3, sequence (P40763 2-770 limits assumed): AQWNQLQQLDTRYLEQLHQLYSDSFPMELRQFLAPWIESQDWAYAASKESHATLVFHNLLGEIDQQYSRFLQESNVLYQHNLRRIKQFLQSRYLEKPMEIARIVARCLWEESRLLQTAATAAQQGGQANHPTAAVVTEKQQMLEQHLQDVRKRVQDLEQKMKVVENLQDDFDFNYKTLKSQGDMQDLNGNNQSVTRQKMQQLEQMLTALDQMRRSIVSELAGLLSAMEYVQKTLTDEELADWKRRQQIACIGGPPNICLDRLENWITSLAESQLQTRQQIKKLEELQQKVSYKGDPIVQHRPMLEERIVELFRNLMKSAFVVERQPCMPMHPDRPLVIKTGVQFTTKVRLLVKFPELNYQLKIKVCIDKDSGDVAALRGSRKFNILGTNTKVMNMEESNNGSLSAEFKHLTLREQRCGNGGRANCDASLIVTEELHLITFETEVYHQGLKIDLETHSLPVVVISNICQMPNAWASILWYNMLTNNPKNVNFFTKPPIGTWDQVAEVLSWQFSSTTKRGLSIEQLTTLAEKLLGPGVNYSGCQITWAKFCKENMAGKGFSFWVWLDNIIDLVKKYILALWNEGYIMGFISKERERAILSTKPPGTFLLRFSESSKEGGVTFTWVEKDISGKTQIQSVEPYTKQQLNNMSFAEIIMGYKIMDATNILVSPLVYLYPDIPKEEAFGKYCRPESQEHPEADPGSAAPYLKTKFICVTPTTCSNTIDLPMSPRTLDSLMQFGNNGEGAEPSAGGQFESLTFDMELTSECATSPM
From the text: Values are the mean and S.D. of eight tumor-bearing mice each.

T1 sequence (P42227 2-770 limits assumed): as the sequence (P40763 2-770 limits assumed) above, with E759D counted along it
FLAG-ST3:Stat3-YFP complex, sequence (P40763 whole entry, one chain of several): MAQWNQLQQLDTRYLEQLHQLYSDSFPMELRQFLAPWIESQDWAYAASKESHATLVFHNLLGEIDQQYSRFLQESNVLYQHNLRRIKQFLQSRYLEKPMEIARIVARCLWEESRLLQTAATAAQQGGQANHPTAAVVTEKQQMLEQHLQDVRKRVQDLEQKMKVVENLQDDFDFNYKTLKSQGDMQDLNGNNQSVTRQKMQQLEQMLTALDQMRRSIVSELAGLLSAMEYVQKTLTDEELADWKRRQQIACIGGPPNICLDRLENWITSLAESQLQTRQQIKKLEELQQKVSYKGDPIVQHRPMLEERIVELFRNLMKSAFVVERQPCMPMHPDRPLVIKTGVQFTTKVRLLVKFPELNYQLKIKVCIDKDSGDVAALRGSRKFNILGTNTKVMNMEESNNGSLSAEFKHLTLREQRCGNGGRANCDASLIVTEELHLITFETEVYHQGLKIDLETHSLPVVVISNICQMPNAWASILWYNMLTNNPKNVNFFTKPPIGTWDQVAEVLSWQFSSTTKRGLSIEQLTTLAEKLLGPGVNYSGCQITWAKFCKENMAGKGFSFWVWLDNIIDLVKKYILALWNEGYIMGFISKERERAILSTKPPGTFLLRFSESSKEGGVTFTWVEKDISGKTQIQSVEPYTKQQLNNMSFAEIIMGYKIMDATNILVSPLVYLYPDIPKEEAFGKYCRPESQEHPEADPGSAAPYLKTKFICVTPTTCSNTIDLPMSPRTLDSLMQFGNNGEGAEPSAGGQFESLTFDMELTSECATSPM

O=C(COS(=O)(=O)c1ccc(-c2ccccc2)cc1)Nc1ccc(C(=O)O)c(O)c1 [Compound 19]
IC50 (STAT3 [1]): > 500 µM

O=C(CNS(=O)(=O)c1ccc(-c2ccccc2)cc1)Nc1ccc(C(=O)O)c(O)c1 [Compound 21]
IC50 (STAT3 [1]): > 500 µM

CCOC(=O)c1ccc(NC(=O)CC(CNS(=O)(=O)c2ccc(Oc3ccccc3)cc2)c2ccc(Cl)cc2)cc1 (centres unmarked) [Compound 37]
IC50 (STAT3 [1]): > 500 µM

CCOC(=O)c1ccc(NC(=O)CC(CNS(=O)(=O)c2ccc(C)cc2)c2ccc(Cl)cc2)cc1 (centres unmarked) [Compound 38, Ethyl 4-(3-(4-chlorophenyl)-4-(4-methylphenylsulfonamido)butanamido)benzoate]
melting point: 187 to 189 °C

CCOC(=O)c1ccc(NC(=O)CC(CNS(=O)(=O)c2ccc(Oc3ccccc3)cc2)c2ccccc2)cc1 (centres unmarked) [Compound 56, Ethyl 4-(4-(4-phenoxyphenylsulfonamido)-3-phenylbutanamido)benzoate]
melting point: 147 to 149 °C

CCOC(=O)c1ccc(NC(=O)CC(CNS(=O)(=O)c2ccc(Oc3ccccc3)cc2)c2ccc3ccccc3c2)cc1 (centres unmarked) [Compound 58, Ethyl 4-(3-(naphthalen-2-yl)-4-(4-phenoxyphenylsulfonamido)butanamido)benzoate]
melting point: 141 to 143 °C

O=C(CC(CNS(=O)(=O)c1ccc(Oc2ccccc2)cc1)c1ccccc1)Nc1ccc(C(=O)O)cc1 (centres unmarked) [Compound 60, 4-(4-(4-phenoxyphenylsulfonamido)-3-phenylbutanamido)benzoic acid]
melting point: 187 to 189 °C
IC50 (STAT3 [2]): > 500 µM

O=C(CC(CNS(=O)(=O)c1ccc(Oc2ccccc2)cc1)c1ccc2ccccc2c1)Nc1ccc(C(=O)O)cc1 (centres unmarked) [Compound 61, 4-(3-(naphthalen-2-yl)-4-(4-phenoxyphenylsulfonamido)butanamido)benzoic acid]
melting point: 183 to 184 °C

O=C(CC(CNS(=O)(=O)c1ccc(Oc2ccccc2)cc1)c1ccc2ccccc2c1)Nc1ccc(C(=O)O)c(O)c1 (centres unmarked) [Compound 65, 2-hydroxy-4-(3-(naphthalen-2-yl)-4-(4-phenoxyphenylsulfonamido)butanamido)benzoic acid]
melting point: 153 to 155 °C
IC50 (STAT3 [2]): > 500 µM

CCOC(=O)c1ccc(NC(=O)CCc2ccccc2)cc1 [Compound 70, Ethyl 4-(3-phenylpropanamido)benzoate]
melting point: 109 to 111 °C
IC50 (STAT3 [2]): > 500 µM

O=C(CCc1ccc2ccccc2c1)Nc1ccc(C(=O)O)cc1 [Compound 71, 4-(3-(Naphthalen-2-yl)propanamido)benzoic acid]
melting point: 255 to 257 °C
IC50 (STAT3 [2]): > 500 µM

Cc1ccc(S(=O)(=O)OCC(=O)Nc2ccc(C(=O)O)c(O)c2)cc1 [Compound S3I-201, 2-Hydroxy-4-(2-(tosyloxy)acetamido)benzoic acid]
preference for Stat3 over Stat5 (less potency for Stat5) (Stat5:5; DNA-binding activity): 2 fold
IC50 (Stat5:5; Table 4, listed as 74859, read-out: IC50 values for the inhibition of STATs DNA-binding activity in vitro, Stat5:5): 166 µM
phosphorylation of Shc (pShc), Erk1/2 (pErk1/2), or Src (pSrc) ([3]; 100 μM, 24 hours): no significant effect
total Erk1/2 protein levels ([3]; 24 hours): unchanged
pTyr profile, anti-pTyr antibody 4G10 clone ([3]; NIH3T3/v-Src, 24-hour treatment): no significant changes
v-Src-mediated induction of β-Casein promoter Luc [4]: not affected
viable cell numbers and growth (NIH3T3/v-Src [5]): significantly reduced viable cell numbers and inhibited growth
growth and viability (NIH3T3 [6]): not significantly altered
viable cell numbers and growth [7]: significantly reduced viable cell numbers and inhibited growth
growth and viability (MDA-MB-453 [8]): not significantly altered
soft-agar growth (NIH3T3/v-Ras): unaffected
growth in soft-agar suspension (NIH3T3/v-Src [9]): significantly inhibited
sensitivity to apoptosis induction (MDA-MB-435; 30 μM): more sensitive
apoptosis (MDA-MB-435; 30-100, 48 hours): significant apoptosis
sensitivity to apoptosis induction (MDA-MB-453 [10]): less sensitive
apoptosis (NIH3T3/v-Src [11]; 30-100, 48 hours): significant apoptosis
apoptosis (NIH3T3/v-Src [11]; cells overexpressing the ST3-NT region): strong induction of apoptosis
apoptosis (NIH3T3/v-Src [11]; mock-transfected cells): strongly induced
apoptosis (NIH3T3/v-Src [11]; overexpression of the Stat3-SH2 domain): diminished the apoptotic effects
sensitivity to apoptosis induction (NIH3T3 [12]; 100 μM or less, 48 hours): less sensitive
cytotoxicity (NIH3T3 [12]; 300 μM or higher, independent of Stat3 activation status): general, non-specific cytotoxicity
apoptosis (MDA-MB-231): 50-80%
expression of the Cyclin D1, Bcl-xL and Survivin proteins [13]: significant reduction in expression
expression of the Cyclin D1, Bcl-xL and Survivin proteins [14]: significant reduction in expression
tumor growth compared to control (vehicle-treated) tumors ([15]; 5 mg/kg i.v. every 2 or every 3 days for two weeks): strong growth inhibition
tumor growth upon termination of treatment ([15]; data not shown): no resumption of tumor growth
total Stat3 protein in residual tumor tissue ([15]; treated mice T1 and T2): remained unchanged
pTyr Stat3 (pYStat3) in residual tumor tissue ([15]; treated mice T1 and T2 compared to control): minimal to no detection
Stat3 DNA binding activity in residual tumor tissue (EMSA) ([15]; treated mice T1 and T2 compared to control tumor): strong inhibition
FLAG-ST3 protein in the Stat3-YFP immunoprecipitates [16]: no detectable level
Stat3-YFP in the FLAG-ST3 immunoprecipitates [16]: significantly reduced
constitutive Stat3 activation [17]: significantly inhibited
constitutive Stat3 activation [18]: significantly inhibited
pTyr705 Stat3 levels [19]: significantly diminished
total Stat3 protein level [19]: remained unchanged
v-Src-mediated pLucTKS3 induction [20]: significantly inhibited
v-Src-mediated induction of pLucSRE [21]: not affected
Stat3 activity in control tumor tissue lysates (Stat3 [22]): dose-dependent abrogation
